According to publication PMC6271849, “Quantitative Analysis of the Flavonoid Glycosides and Terpene Trilactones in the Extract of Ginkgo biloba and Evaluation of Their Inhibitory Activity towards Fibril Formation of β-Amyloid Peptide” (Molecules, 2014):

The compounds below were run against T1, amyloid β peptide (Aβ42) (Homo sapiens, UniProt P05067) (assay: biochemical).
T1 construct: gene APP; Aβ42 peptide
T1 sequence (P05067 672-713 limits assumed): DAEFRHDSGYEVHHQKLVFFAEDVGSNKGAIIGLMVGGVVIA

Row | Structure (SMILES) | IC50 [µM]
1 | C[C@@H]1O[C@@H](OC[C@H]2O[C@@H](Oc3c(-c4ccc(O)c(O)c4)oc4cc(O)cc(O)c4c3=O)[C@H](O)[C@@H](O)[C@@H]2O)[C@H](O)[C@H](O)[C@H]1O [compound 1, quercetin 3-O-β-D-rutinoside] | 33 ± 4.84
2 | C[C@@H]1O[C@@H](Oc2c(-c3ccc(O)c(O)c3)oc3cc(O)cc(O)c3c2=O)[C@H](O[C@@H]2O[C@H](CO)[C@@H](O)[C@H](O)[C@H]2O)[C@H](O)[C@H]1O [compound 2, quercetin 3-O-α-L-(β-D-glucopyranosyl)-(1,2)-rhamnopyranoside] | 67.1 ± 11.7
3 | C[C@@H]1O[C@@H](Oc2c(-c3ccc(O)c(O)c3)oc3cc(O)cc(O)c3c2=O)[C@H](O[C@@H]2O[C@H](COC(=O)/C=C/c3ccc(O)cc3)[C@@H](O)[C@H](O)[C@H]2O)[C@H](O)[C@H]1O [compound 6, quercetin 3-O-α-(6′′′-p-coumaroylglucopyranosyl-β-1,2-rhamnopyranoside)] | 32.6 ± 4.83
